Where only a bound is given, the exact number is not on record here.

For this experiment, the target named is T1, hTLR8 (Homo sapiens, UniProt Q9NR97).
T1 construct: host or cells: HEK-Blue hTLR8 cells
T1 sequence (Q9NR97 27-1041): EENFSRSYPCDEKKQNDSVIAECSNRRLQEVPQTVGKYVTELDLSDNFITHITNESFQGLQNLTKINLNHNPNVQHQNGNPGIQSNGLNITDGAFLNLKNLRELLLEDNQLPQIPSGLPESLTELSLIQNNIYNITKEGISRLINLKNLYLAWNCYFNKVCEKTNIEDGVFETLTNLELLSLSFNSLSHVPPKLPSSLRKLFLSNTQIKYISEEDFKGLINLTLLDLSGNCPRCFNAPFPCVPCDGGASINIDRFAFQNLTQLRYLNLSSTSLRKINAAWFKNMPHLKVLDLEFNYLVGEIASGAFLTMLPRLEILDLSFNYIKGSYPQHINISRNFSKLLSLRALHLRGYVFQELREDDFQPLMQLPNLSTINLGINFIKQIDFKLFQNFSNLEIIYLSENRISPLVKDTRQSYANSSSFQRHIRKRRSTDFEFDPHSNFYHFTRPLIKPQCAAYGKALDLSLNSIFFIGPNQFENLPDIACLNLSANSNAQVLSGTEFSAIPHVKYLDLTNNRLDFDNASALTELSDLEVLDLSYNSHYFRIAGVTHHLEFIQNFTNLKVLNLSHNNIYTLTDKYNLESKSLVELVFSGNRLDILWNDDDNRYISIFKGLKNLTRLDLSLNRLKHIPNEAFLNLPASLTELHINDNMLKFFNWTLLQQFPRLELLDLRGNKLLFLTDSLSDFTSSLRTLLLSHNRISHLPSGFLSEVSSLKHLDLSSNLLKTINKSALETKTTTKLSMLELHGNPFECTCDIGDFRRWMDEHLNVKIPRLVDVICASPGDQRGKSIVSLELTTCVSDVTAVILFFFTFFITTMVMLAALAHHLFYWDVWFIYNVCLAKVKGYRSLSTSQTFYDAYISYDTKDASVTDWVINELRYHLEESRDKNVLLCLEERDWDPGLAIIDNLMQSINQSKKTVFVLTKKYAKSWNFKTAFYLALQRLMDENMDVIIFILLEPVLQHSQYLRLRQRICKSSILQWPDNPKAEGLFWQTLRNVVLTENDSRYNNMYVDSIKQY
The experiment is described as follows: Agonistic effect on hTLR8, HEK-Blue hTLR8 cells, alkaline phosphatase secretion. The format is cell-based. Particulars: 16 hours. The protocol:
Experimental Example 4: Agonistic Effect of the Compound of the Invention on hTLR8
In this test, the secretion of alkaline phosphatase in HEK-Blue cells was measured to test the activating effect of the compound of the invention on TLR8 signaling pathway, so as to evaluate the specificity of the agonistic effect of the compound on NLRP3 pathway.
Reagents: DMEM (High glucose); FBS (fetal bovine serum) (Gibco); QUANTI-Blue/InvivoGen/rep-qb2
Cells: HEK-Blue™ hTLR8 cells (human TLR 8 cells) (InvivoGen) Experimental Procedures:
1) The HEK-Blue™ hTLR8 cells in a logarithmic growth phase were trypsinized and resuspended in the medium to a concentration of 2×10^6 cells/mL. 50 μL/well of the cell suspension was added to a 96-well plate. An appropriate amount of 10 mM DMSO solution of the compound to be tested was taken and diluted to a concentration of 2× test concentration with the medium. 50 μL/well was added to the cells in the 96-well plate. The plate was incubated in an incubator at 37° C. and 5% CO2 for 16 hours. The medium was DMEM (High glucose) containing 10% FBS. 2) After the cell incubation, 10 μL of cell culture supernatant was transferred to a 96-well plate. 90 μL/well of QUANTI-Blue detection solution was added, and the mixture was incubated at 37° C. for 3 hours. OD620 was read using a microplate reader.
3) The EC50 of the effect of the tested compound to stimulate hTLR8 was fitted by the GraphPad software log(agonist) vs. response—Variable slope four-parameter method.
One may read the EC50 as the concentration that produces a half-maximal response. Lower therefore signals an effect from little substance. With `Nc1cc(N2CCN(C3CC3)CC2)c2sc(-c3ccn[nH]3)cc2n1` [Compound 163], the EC50 was over 100 µM.
The figure for `CC1(O)CCN(CCNc2cc(N)nc3cc(-c4ccn[nH]4)sc23)CC1` [Compound 98, 1-(2-((5-amino-2-(1H-pyrazol-5-yl)thieno[3,2-b]pyridin-7-yl)amino)ethyl)-4-methylpiperidine-4-ol] is over 100 µM; for `Nc1cc(NCCCO)c2sc(-c3ccncc3)cc2n1` [Compound 90, 3-((5-amino-2-(pyridin-4-yl)thieno[3,2-b]pyridin-7-yl)amino)-1-propanol] it is over 100 µM.
As for `CC(CO)(CO)CNc1cc(N)nc2cc(-c3ccn[nH]3)sc12` [Compound 122], the figure is over 100 µM; as for `COC1CCN(c2cc(N)nc3cc(-c4ccn[nH]4)sc23)C1` (centres unmarked) [Compound 180], over 100 µM.

These data come from US20220056043A1, “NITROGEN-CONTAINING FUSED CYCLIC COMPOUND, PREPARATION METHOD THEREFOR AND USE THEREOF” (SICHUAN KELUN-BIOTECH BIOPHARMACEUTICAL CO., LTD., priority 2019, published 2022).
